Converted amounts (≈) assume the structure as drawn.
Key:
[1] = test system: Staphylococcus aureus; assay: In vitro antibacterial activity against Staphylococcus aureus SG 511; format: functional
[2] = test system: Staphylococcus aureus; assay: In vitro antibacterial activity against Staphylococcus aureus 285; format: functional
[3] = test system: Staphylococcus aureus; assay: In vitro antibacterial activity against Staphylococcus aureus 503; format: functional
[4] = test system: Enterobacter cloacae; assay: In vitro antibacterial activity against Enterobacter cloacae 1321E; format: functional
[5] = organism: Sus scrofa; assay: DHP-I stability of compound relative to t1/2 of hydrolysis to meropenem; format: functional; set-up: scale not given: the % may be the effect or the level left
[6] = test system: Salmonella typhimurium; assay: In vitro antibacterial activity against Salmonella Typhimurium; format: functional, Salmonella enterica subsp. enterica serovar Typhimurium; settings: Salmonella enterica
[7] = test system: Pseudomonas aeruginosa; assay: In vitro antibacterial activity against Pseudomonas aeruginosa 9027; format: functional
[8] = test system: Escherichia coli; assay: In vitro antibacterial activity against Escherichia coli 1507E; format: functional
[9] = test system: Escherichia coli; assay: In vitro antibacterial activity against Escherichia coli 078; format: functional
[10] = test system: Pseudomonas aeruginosa; assay: In vitro antibacterial activity against Pseudomonas aeruginosa 1771M; format: functional
[11] = test system: Streptococcus pyogenes; assay: In vitro antibacterial activity against Streptococcus pyogenes 308A; format: functional
[12] = test system: Klebsiella aerogenes; assay: In vitro antibacterial activity against Klebsiella aerogenes 1522E; format: functional
[13] = Area under curve of compound after iv administration of 20 mg/kg dose in rat; format: ADME, organism-based; set-up: dose 20 mg/kg, route intravenous; settings: in vivo
[14] = Half life of compound after iv administration of 20 mg/kg dose in rat; format: ADME, organism-based; set-up: dose 20 mg/kg, route intravenous; settings: in vivo
[15] = Clearance of compound after iv administration of 20 mg/kg dose in rat; format: ADME, organism-based; set-up: dose 20 mg/kg, route intravenous; settings: in vivo

Structure (SMILES)	MIC [1] [µg/mL]	MIC [2] [µg/mL]	MIC [3] [µg/mL]	MIC [4] [µg/mL]	MIC [6] [µg/mL]	MIC [7] [µg/mL]	MIC [8] [µg/mL]	MIC [9] [µg/mL]	MIC [10] [µg/mL]	MIC [11] [µg/mL]	MIC [12] [µg/mL]	AUC [13] [ng·h/mL]	half-life [14] [min]	clearance [15] [mL/min/kg]	Stability [5] [%]
Cc1nnc(SC[C@@H]2C[C@H](SC3=C(C(=O)O)N4C(=O)[C@H]([C@@H](C)O)[C@H]4[C@H]3C)CN2)s1	0.025 (≈ 0.0548 µM)	0.025 (≈ 0.0548 µM)	0.007 (≈ 0.0153 µM)	0.013 (≈ 0.0285 µM)	0.025 (≈ 0.0548 µM)	3.12 (≈ 6.84 µM)	0.007 (≈ 0.0153 µM)	0.007 (≈ 0.0153 µM)	0.195 (≈ 0.427 µM)	0.004 (≈ 0.00876 µM)	0.025 (≈ 0.0548 µM)				108
C[C@@H](O)[C@H]1C(=O)N2C(C(=O)O)=C(S[C@@H]3CN[C@H](CSc4cnns4)C3)[C@H](C)[C@H]12	0.025 (≈ 0.0565 µM)	0.049 (≈ 0.111 µM)	0.013 (≈ 0.0294 µM)	0.013 (≈ 0.0294 µM)	0.025 (≈ 0.0565 µM)	1.56 (≈ 3.53 µM)	0.013 (≈ 0.0294 µM)	0.013 (≈ 0.0294 µM)	0.195 (≈ 0.441 µM)	0.007 (≈ 0.0158 µM)	0.025 (≈ 0.0565 µM)	36900	43.1	10.2	167
C[C@@H](O)[C@H]1C(=O)N2C(C(=O)O)=C(S[C@@H]3CN[C@H](CSc4nncn4C)C3)[C@H](C)[C@H]12	0.049 (≈ 0.111 µM)	0.098 (≈ 0.223 µM)	0.025 (≈ 0.0569 µM)	0.049 (≈ 0.111 µM)	0.098 (≈ 0.223 µM)	1.56 (≈ 3.56 µM)	0.049 (≈ 0.111 µM)	0.025 (≈ 0.0569 µM)	0.195 (≈ 0.444 µM)	0.013 (≈ 0.0296 µM)	0.098 (≈ 0.223 µM)				93
C[C@@H](O)[C@H]1C(=O)N2C(C(=O)O)=C(S[C@@H]3CN[C@H](C(=O)N(C)C)C3)[C@H](C)[C@H]12 [MEROPENEM]	0.195 (≈ 0.509 µM)	0.195 (≈ 0.509 µM)	0.098 (≈ 0.256 µM)	0.025 (≈ 0.0652 µM)	0.049 (≈ 0.128 µM)	0.195 (≈ 0.509 µM)	0.025 (≈ 0.0652 µM)	0.025 (≈ 0.0652 µM)	0.049 (≈ 0.128 µM)	0.013 (≈ 0.0339 µM)	0.049 (≈ 0.128 µM)				100
C[C@@H](O)[C@H]1C(=O)N2C(C(=O)O)=C(S[C@@H]3CN[C@H](CSc4nnnn4C)C3)[C@H](C)[C@H]12	0.025 (≈ 0.0567 µM)	0.049 (≈ 0.111 µM)	0.025 (≈ 0.0567 µM)	0.025 (≈ 0.0567 µM)	0.025 (≈ 0.0567 µM)	0.781 (≈ 1.77 µM)	0.025 (≈ 0.0567 µM)	0.025 (≈ 0.0567 µM)	0.195 (≈ 0.443 µM)	0.004 (≈ 0.00908 µM)	0.025 (≈ 0.0567 µM)		11		88
C[C@@H](O)[C@H]1C(=O)N2C(C(=O)O)=C(SCCNC=N)C[C@H]12.O [IMIPENEM]													3.46		
C[C@@H](O)[C@H]1C(=O)N2C(C(=O)O)=C(S[C@@H]3CN[C@H](CSc4nccc(C(F)(F)F)n4)C3)[C@H](C)[C@H]12	0.098 (≈ 0.194 µM)	0.098 (≈ 0.194 µM)	0.025 (≈ 0.0495 µM)	0.025 (≈ 0.0495 µM)	0.049 (≈ 0.0971 µM)	50 (≈ 99.1 µM)	0.025 (≈ 0.0495 µM)	0.025 (≈ 0.0495 µM)	0.781 (≈ 1.55 µM)	0.007 (≈ 0.0139 µM)	0.049 (≈ 0.0971 µM)				

Continued, in another order:

MIC [1] [µg/mL]	MIC [2] [µg/mL]	MIC [3] [µg/mL]	MIC [4] [µg/mL]	MIC [6] [µg/mL]	MIC [7] [µg/mL]	MIC [8] [µg/mL]	MIC [9] [µg/mL]	MIC [10] [µg/mL]	MIC [11] [µg/mL]	MIC [12] [µg/mL]	AUC [13] [ng·h/mL]	half-life [14] [min]	clearance [15] [mL/min/kg]	Structure (SMILES)	Stability [5] [%]
< 0.049	< 0.049	0.025 (≈ 0.0507 µM)	0.049 (≈ 0.0995 µM)	0.098 (≈ 0.199 µM)	12.5 (≈ 25.4 µM)	0.098 (≈ 0.199 µM)	0.049 (≈ 0.0995 µM)	1.56 (≈ 3.17 µM)	< 0.002	0.098 (≈ 0.199 µM)				CNC(=O)c1cccnc1SC[C@@H]1C[C@H](SC2=C(C(=O)O)N3C(=O)[C@H]([C@@H](C)O)[C@H]3[C@H]2C)CN1	
0.049 (≈ 0.109 µM)	0.098 (≈ 0.217 µM)	0.025 (≈ 0.0555 µM)	0.098 (≈ 0.217 µM)	0.098 (≈ 0.217 µM)	25 (≈ 55.5 µM)	0.098 (≈ 0.217 µM)	0.049 (≈ 0.109 µM)	6.25 (≈ 13.9 µM)	0.007 (≈ 0.0155 µM)	0.098 (≈ 0.217 µM)				Cc1ccnc(SC[C@@H]2C[C@H](SC3=C(C(=O)O)N4C(=O)[C@H]([C@@H](C)O)[C@H]4[C@H]3C)CN2)n1	122
0.025 (≈ 0.0554 µM)	0.049 (≈ 0.109 µM)	0.195 (≈ 0.432 µM)	0.098 (≈ 0.217 µM)	0.195 (≈ 0.432 µM)	25 (≈ 55.4 µM)	0.195 (≈ 0.432 µM)	0.195 (≈ 0.432 µM)	6.25 (≈ 13.8 µM)	< 0.002	0.195 (≈ 0.432 µM)				C[C@@H](O)[C@H]1C(=O)N2C(C(=O)O)=C(S[C@@H]3CN[C@H](CSc4ncccc4O)C3)[C@H](C)[C@H]12	
0.025 (≈ 0.0573 µM)	0.049 (≈ 0.112 µM)	0.025 (≈ 0.0573 µM)	0.049 (≈ 0.112 µM)	0.098 (≈ 0.224 µM)	3.12 (≈ 7.16 µM)	0.049 (≈ 0.112 µM)	0.049 (≈ 0.112 µM)	0.391 (≈ 0.896 µM)	< 0.002	0.098 (≈ 0.224 µM)				C[C@@H](O)[C@H]1C(=O)N2C(C(=O)O)=C(S[C@@H]3CN[C@H](CSc4ncccn4)C3)[C@H](C)[C@H]12	89

Source: ChEMBL document CHEMBL1133947, “Synthesis and biological properties of new 1beta-methylcarbapenems containing heteroaromatic thioether moiety” (Bioorg Med Chem Lett, 2001)
